Data: the NIST ThermoML archive (doi:10.1021/acs.jced.6b00504)
Numbers after ± are expanded uncertainties.

Test: wn = mass fraction of the nth substance listed
Conditions: 100 kPa, Liquid; for viscosity: Falling or rolling sphere viscometry; for mass density: Vibrating tube method

CNCCO [2-(methylamino)ethanol] + O
Conditions	mass density, w1 = 0.075 [kg/m3]	mass density, w1 = 0.15 [kg/m3]	mass density, w1 = 0.225 [kg/m3]	mass density, w1 = 0.3 [kg/m3]	viscosity, w1 = 0.075 [mPa·s]	viscosity, w1 = 0.15 [mPa·s]	viscosity, w1 = 0.225 [mPa·s]	viscosity, w1 = 0.3 [mPa·s]
293.15 K	997.66 ± 5.8	997.93 ± 5.8	999 ± 5.8	1001.69 ± 5.8	1.39 ± 0.012	1.875 ± 0.017	2.702 ± 0.024	3.973 ± 0.036
298.15 K	996.35 ± 5.8	996.35 ± 5.8	997.03 ± 5.8	999.21 ± 5.8	1.217 ± 0.011	1.639 ± 0.015	2.367 ± 0.021	3.335 ± 0.03
303.15 K	994.81 ± 5.8	994.57 ± 5.8	994.9 ± 5.8	996.58 ± 5.8	1.075 ± 0.01	1.426 ± 0.013	2.02 ± 0.018	2.886 ± 0.026
308.15 K	993.06 ± 5.8	992.6 ± 5.8	992.58 ± 5.8	993.8 ± 5.8	0.958 ± 0.009	1.263 ± 0.011	1.744 ± 0.016	2.461 ± 0.022
313.15 K	991.11 ± 5.8	990.45 ± 5.8	990.11 ± 5.8	990.81 ± 5.8	0.859 ± 0.008	1.151 ± 0.01	1.521 ± 0.014	2.157 ± 0.019
318.15 K	988.99 ± 5.8	988.13 ± 5.8	987.49 ± 5.8	987.7 ± 5.8	0.777 ± 0.007	1.022 ± 0.009	1.409 ± 0.013	1.902 ± 0.017
323.15 K	986.7 ± 5.8	985.66 ± 5.8	984.71 ± 5.8	984.5 ± 5.8	0.707 ± 0.006	0.993 ± 0.009	1.299 ± 0.012	1.727 ± 0.016
